Experimental data as given in US6630447B2, “Peptide inhibitors of LFA-1/ICAM-1 interaction” (University of New Mexico, priority 2000, dated 2003).
Where two headings read alike, the source gives them in different places. Bridge positions count the residues as written; N and C are the ends. Peptide text beside a SMILES is read from it.

Experiments:
[1] = tested on: LFA-1/ICAM-1 mediated JY cell aggregation; type: cell-based; settings: for Percent Inhibition: (1 − (Observed/Max) × 100); for Percent Inhibition / Percent JY Aggregation: (SD) in parentheses; for Inhibition of LFA-1/ICAM-1 mediated JY cell aggregation compared to SEQ ID NO: 1 (in words): substituted derivatives of the consensus peptide
Procedure: LFA-1 dependent cell aggregation has been previously studied using an aggregation assay it with a variety of leukocyte subclasses and cell lines (Larson et al., 1990; Wang et al., 1988; Larson et al., 1997). JY cells were obtained form American Type Tissue Culture Collection and were maintained in RPMI 1640 supplemented with 10% FBS at 37° C. in 5% CO2. Aggregation of cells was measured in a homotypic aggregation assay using ICAM-1 as a stimuli. JY cells were washed twice with serum free medium and resuspended at a concentration of 4×10^5 is cells/ml. Cells were preincubated with the desired concentration of peptide for 15 min at room temperature. In a final volume of 100 μl, 50 μl of cells and peptide were seeded in 96 well flat bottomed microtiter plates. Cells were allowed to aggregate at 37° C. in humidified air with 5% CO2. Cells were visualized and counted by inverted phase contrast microscopy at the time indicated. Within each well of aggregates as well as the total number of free (single) cells were counted. percent aggregation was determined by the following equation:
Percent aggregation=100×(1−number of free cells/total number of cells)
The consensus peptide (SEQ ID NO: 1) and the randomized sequence CLMIRMLRC (SEQ ID NO: 33), cyclizied in the disulfide-linked form, were synthesized by Biopeptide (San Diego, Calif.) and tested in a screening assay for the ability to inhibit aggregation of the cell line JY, which aggregates in an LFA-1/CAM-1 dependent manner. Aggregation measurements are relatively rapid and quantifiable. Furthermore, small volumes are used minimizing peptide consumption. Finally, cell aggregation in vitro depends on a multivalent LFA-1/ICAM-1 interaction. A peptide that is identified as being able to block cell aggregation in vitro is, therefore, likely to have affinity and off-rate characteristics that would make it an effective in vivo inhibitor, since cell—cell interaction in vivo also involves multivalent LFA-1/ICAM-1 interaction. Using this assay, the consensus peptide sequence has an IC50 of 500 μM (FIG. 1).
Peptides are initially tested for their ability to block LFA-1/ICAM dependent aggregation of the cell line JY (Wang et al., 1988; Larson et al., 1997). Peptides are preferably tested over a range of concentrations ([…], for example) and the concentration leading to half maximal inhibition of aggregation (IC50) is determined for all the peptide sequences.

[2] = tested on: neutrophil binding to stimulated endothelial cells; experiment: Firm attachment of neutrophils to stimulated endothelial cells in a parallel plate flow chamber; type: cell-based, human; settings: for Percent Inhibition of firm attachment of neutrophils: (1 − (Observed/Maximum)) × 100; for Percent Inhibition of firm attachment of neutrophils / Firmly attached neutrophils, Cells/mm^2: (SD) in parentheses; for Neutrophil-binding to endothelium (in words): physiologic flow conditions; for Firmly attached neutrophils, Cells/mm^2: physiologic flow
Text: An assay has been developed that provides an in vitro model of neutrophils or APL cells binding to activated endothelium. The binding of APL cells using a parallel plate flow chamber recapitulates events that occur in retinoic acid syndrome (Larson et al., 1997; Brown et al., 1999). A parallel plate flow chamber simulates the physiologic flow conditions in blood and adhesive interactions in post-capillary venules. Post-capillary venules are the physiologically relevant locations of leukemia cell-endothelial cell interaction and extravasation. […] Monolayers of endothelial cells are placed in the parallel plate flow chamber, and the leukemic cells are pumped through the chamber at physiologic flow rates. The interaction between the flowing leukemia cells and the endothelium are videotaped microscopically, and the number of rolling, firmly adhered and transmigrated leukemia cells is quantified by computer-assisted image analysis.
For investigating neutrophil binding, neutrophils are isolated from heparin anticoagulated venous blood of healthy adult donors by centrifugation on Ficoll-Hypaque density gradients as described by Simon et al. (1992). Isolated neutrophils are suspended at a concentration of 10^7/ml in Hanks' Balanced Salt Solution supplemented with 10 mmol/L HEPES, pH 7.4 and 0.2% human serum albumin (Armour Pharmaceutical, Kankakee, Ill.) and used within 2 hours of preparation. Neutrophils are kept on ice and resuspended in RPMi pre-warmed to 37° C. immediately before use.

[3] = Solubility of peptides in aqueous solution; type: physicochemical
Text: An alternative derivative peptide strategy was undertaken in which the consensus sequence peptide was subjected to an alanine-screening procedure as described by Cunningham and Wells, 1989. Peptides cyclizied in the disulfide-linked form were synthesized by Biopeptide (San Diego, Calif.) wherein an alanine was substituted at each position in the hepatapeptide LLRMRSI of the consensus sequence SEQ ID NO: 1, and each peptide was examined in parallel for its ability to inhibit LFA-1/ICAM-1 mediated JY cell aggregation. Six of the seven peptides were soluble in aqueous solution. SEQ ID NO: 376, representing a substitution of the arginine in position 4 of SEQ ID NO: 1, was not soluble at […] and could not be tested. […] The randomized sequence CLRLSRIMC (SEQ ID NO: 56) was used as a control.

[4] = Table 4, homologous amino acid substitutions
[5] = Table 3, alanine-substituted derivations

Row | Compound | Percent Inhibition ([1]; Table 4, JY cell aggregation) | Percent JY Aggregation [1, 4] | Inhibition of LFA-1/ICAM-1 mediated JY cell aggregation compared to SEQ ID NO: 1 (in words) [1] | Percent Inhibition ([1]; Table 3, JY cell aggregation) | Percent JY Aggregation [1, 5] | also measured
1 | CLLRMRSVC (OTHER INFORMATION: Description of Artificial Sequence:Synthetic) [SEQ ID NO: 48] | 92(3) Percent | 4(1) Percent | greater inhibition | – | – | –
2 | CLMIRMLRC (OTHER INFORMATION: Description of Artificial Sequence:Synthetic) [SEQ ID NO: 33, reference compound] | – | – | – | – | – | Aggregation of JY cells (FIG. 1, in words) ([1]; concentration of 1 mM): ineffective
3 | CLLRARSIC (OTHER INFORMATION: Description of Artificial Sequence:Synthetic) [SEQ ID NO: 37] | – | – | Loss of inhibitory function | 5(14) Percent | 72(11) Percent | –
4 | CLIRMRSAC (OTHER INFORMATION: Description of Artificial Sequence:Synthetic) [SEQ ID NO: 44] | 93(3) Percent | 4(2) Percent | greater inhibition | – | – | –
5 | CC[C@H](C)[C@@H]1NC(=O)[C@H](CO)NC(=O)[C@H](CCCNC(=N)N)NC(=O)[C@H](CCSC)NC(=O)[C@H](CCCNC(=N)N)NC(=O)[C@H](CC(C)C)NC(=O)[C@H](CC(C)C)NC(=O)[C@@H](N)CSSC[C@@H](C(=O)O)NC1=O [SEQ ID NO: 1, CLLRMRSIC] (H-CLLRMRSIC-OH; disulfide 1-9) | 45(9) Percent | 30(5) Percent | – | 46(11) Percent | 41(8) Percent | Aggregation of JY cells (FIG. 1, in words) ([1]; titration of 100 μM to 1 mM): inhibited; Percent Inhibition of firm attachment of neutrophils [2]: 47(15) Percent; Neutrophil-binding to endothelium (in words) ([2]; parallel plate flow chamber): block; Firmly attached neutrophils, Cells/mm^2 [2]: 439(120) Cells/mm^2
6 | CLLRMKSAC (OTHER INFORMATION: Description of Artificial Sequence:Synthetic) [SEQ ID NO: 46] | 90(4) Percent | 6(2) Percent | greater inhibition | – | – | Percent Inhibition of firm attachment of neutrophils [2]: 66(0) Percent; Inhibition of attachment of neutrophils to activated endothelium compared to SEQ ID NO: 1 (in words) ([2]; parallel plate flow chamber): greater inhibition; Neutrophil-binding to endothelium (in words) ([2]; parallel plate flow chamber): block; Firmly attached neutrophils, Cells/mm^2 [2]: 283(0) Cells/mm^2
7 | CC[C@H](C)[C@@H]1NC(=O)[C@H](CCCNC(=N)N)NC(=O)[C@H](CO)NC(=O)[C@H](CC(C)C)NC(=O)[C@H](CCCNC(=N)N)NC(=O)[C@H](CC(C)C)NC(=O)[C@@H](N)CSSC[C@@H](C(=O)O)NC(=O)[C@H](CCSC)NC1=O [SEQ ID NO: 56, CLRLSRIMC, reference compound] (H-CLRLSRIMC-OH; disulfide 1-9 (inferred)) | – | – | – | – | – | Aqueous solubility relative to randomized sequence SEQ ID NO: 33 [3]: greater aqueous solubility
8 | CLVRMRSAC (OTHER INFORMATION: Description of Artificial Sequence:Synthetic) [SEQ ID NO: 41] | 0(1) Percent | 55(1) Percent | – | – | – | –
9 | CLARMRSIC (OTHER INFORMATION: Description of Artificial Sequence:Synthetic) [SEQ ID NO: 35] | – | – | Loss of inhibitory function | 9(22) Percent | 69(17) Percent | –
10 | CVLRMRSAC (OTHER INFORMATION: Description of Artificial Sequence:Synthetic) [SEQ ID NO: 42] | 56(6) Percent | 24(3) Percent | – | – | – | –
11 | CLLRMRSLC (OTHER INFORMATION: Description of Artificial Sequence:Synthetic) [SEQ ID NO: 47] | −12(13) Percent | 61(7) Percent | – | – | – | –
12 | CLLKMRSAC (OTHER INFORMATION: Description of Artificial Sequence:Synthetic) [SEQ ID NO: 45] | 94(3) Percent | 3(2) Percent | greater inhibition | – | – | –
13 | CLLRMASIC (OTHER INFORMATION: Description of Artificial Sequence:Synthetic) [SEQ ID NO: 38] | – | – | Loss of inhibitory function | 11(12) Percent | 68(9) Percent | –
14 | CLLRMRAIC (OTHER INFORMATION: Description of Artificial Sequence:Synthetic) [SEQ ID NO: 39] | – | – | no significant effect | 27(21) Percent | 56(16) Percent | –
15 | CC[C@H](C)[C@@H]1NC(=O)[C@H](CO)NC(=O)[C@H](CCCNC(=N)N)NC(=O)[C@H](CCSC)NC(=O)[C@H](C)NC(=O)[C@H](CC(C)C)NC(=O)[C@H](CC(C)C)NC(=O)[C@@H](N)CSSC[C@@H](C(=O)O)NC1=O [SEQ ID NO: 36, CLLAMRSIC] (H-CLLAMRSIC-OH; disulfide 1-9) | – | – | Loss of inhibitory function | – | – | Solubility in aqueous solution ([3]; at 1 nm): Not Soluble
16 | CLLRMRSAC (OTHER INFORMATION: Description of Artificial Sequence:Synthetic) [SEQ ID NO: 40] | – | – | more potent antagonist | 61(17) Percent | 29(13) Percent | –
17 | CILRMRSAC (OTHER INFORMATION: Description of Artificial Sequence:Synthetic) [SEQ ID NO: 43] | 92(9) Percent | 4(5) Percent | greater inhibition | – | – | –
18 | CALRMRSIC (OTHER INFORMATION: Description of Artificial Sequence:Synthetic) [SEQ ID NO: 34] | – | – | Loss of inhibitory function | 7(19) Percent | 71(15) Percent | –
